This passage reports GI50 and TGI results from PubChem BioAssay (NCI).

“And” between values parts separate entries of the source, which are not always exact repeats. Equal values may be shown once.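 Tested at 5 concentrations; 48 h exposure; 96-well plates; endpoints linearly interpolated, else capped at highest concentration. At the GI50, growth is halved. TGI marks complete inhibition of growth.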

The subject of one assay is CAKI-1 renal. Nature of the assay: growth of human tumour cells (NCI), 48 h.
Turning to `COc1ccc(-c2oc(=O)ccc2-c2cc(OC)c(OC)c(OC)c2)cc1F`, the GI50 was 9.64 µM and the TGI is greater than 100 µM.

Take `O=C(c1ccc(F)c(F)c1Nc1ccc(I)cc1F)N1CC(O)([C@@H]2CCCCN2)C1`: the GI50 is 2.36 µM; the TGI was 17.9 µM and > 10 µM.

In turn, `Oc1cc(O)c2c(c1)OC(c1ccc(O)c(O)c1)C(OC1(c3cc(O)c(O)c(O)c3)Oc3cc(O)cc(O)c3C(O)C1O)C2` (stereo not given) yielded a TGI of 81.1 µM.

For the compound `CCOc1ccc2nc(S/C(=C/C=C(C#N)C#N)c3ccc(C)cc3)sc2c1`, the GI50 is 17.1 µM and the TGI turned out to be 54.6 µM.

For the compound `COc1cc(CNCCCN2C(=O)c3ccc4c5c(ccc(c35)C2=O)C(=O)N(CCCNCc2cc(OC)c(OC)c(OC)c2)C4=O)cc(OC)c1OC`, the GI50 is 3.28 µM and the TGI is 9.64 µM.

With `Cc1nc2cnc(N)c(C#Cc3cncc(C(=O)Nc4ccc(CN5CCN(C)CC5)c(C(F)(F)F)c4)c3)c2nc1C`, the GI50 is 0.31 µM and the TGI came out at 1.54 µM.

Turning to `O=C1NC(=S)NNC12c1ccccc1-c1ccccc12`, the TGI was greater than 10 µM.

Regarding `Cc1csc(Nc2nc(-c3cccc(Br)c3)nc(C(Cl)(Cl)Cl)n2)n1`, the GI50 was 2.41 µM and the TGI was greater than 100 µM.

With `COc1c(OC)c(OC)c(C(=O)/C=C/c2ccccc2)c(OC)c1OC`, the TGI turned out to be 28.4 µM.

On to `CS(=O)(=O)CCCn1c(=O)c(Oc2ccc(F)cc2F)cc2cnc(NC3CCOCC3)nc21`, for which the GI50 was greater than 25 µM and the TGI is greater than 25 µM.

`O=C(CC(O)(C(F)(F)F)C(F)(F)F)c1cc(CC(=O)C(O)(C(F)(F)F)C(F)(F)F)cc(CC(=O)C(O)(C(F)(F)F)C(F)(F)F)c1` showed a TGI of 5.34 µM.

Take `Cc1cn2c(/C=C3\C(=O)Nc4ccc(O)cc43)c(-c3ccc(Cl)cc3)nc2s1`: the GI50 is 33.4 µM and the TGI stood at 72.8 µM.

With `O=C(c1c(F)ccc(NS(=O)(=O)N2CC[C@@H](F)C2)c1F)c1c[nH]c2ncc(-c3cnc(C4CC4)nc3)cc12`, the GI50 is 3.22 µM and 3.29 µM; the TGI was > 10 µM and 29.8 µM.

In the case of `O=C(c1ccc(Cl)cc1)c1cnc(Nc2ccccc2Cl)s1`, the TGI was found to be 40 µM.

`Nc1nc(N)c(N=Nc2ccc([As](=O)(O)O)cc2)c(=O)[nH]1` showed a TGI greater than 100 µM.

For `C=CC(=O)N1CCC(C2CCNc3c(C(N)=O)c(-c4ccc(Oc5ccccc5)cc4)nn32)CC1` (stereo not given), the GI50 is 4.51 µM and the TGI turned out to be 71 µM.

With `CCCCCCNC(=O)c1nc(-c2ccccc2)oc1Cc1ccc(OP(=O)(O)O)cc1`, the GI50 was 15.8 µM and the TGI was 33.6 µM.

The next assay relates to 786-0 renal. Nature of the assay: growth of human tumour cells (NCI), 48 h.
In the case of `COc1ccc(-c2oc(=O)ccc2-c2cc(OC)c(OC)c(OC)c2)cc1F`, the GI50 was 36.4 µM and the TGI is greater than 100 µM.

As for `O=C(c1ccc(F)c(F)c1Nc1ccc(I)cc1F)N1CC(O)([C@@H]2CCCCN2)C1`, the GI50 was 5.74 µM and 3.82 µM; the TGI is 20.6 µM and > 10 µM.

For `Oc1cc(O)c2c(c1)OC(c1ccc(O)c(O)c1)C(OC1(c3cc(O)c(O)c(O)c3)Oc3cc(O)cc(O)c3C(O)C1O)C2` (stereo not given), the TGI turned out to be 67.8 µM.

For `CCOc1ccc2nc(S/C(=C/C=C(C#N)C#N)c3ccc(C)cc3)sc2c1`, the GI50 is 21.9 µM and the TGI came to 46.8 µM.

On to `COc1cc(CNCCCN2C(=O)c3ccc4c5c(ccc(c35)C2=O)C(=O)N(CCCNCc2cc(OC)c(OC)c(OC)c2)C4=O)cc(OC)c1OC`, for which the GI50 is 0.944 µM and the TGI is 2.39 µM.

`Cc1nc2cnc(N)c(C#Cc3cncc(C(=O)Nc4ccc(CN5CCN(C)CC5)c(C(F)(F)F)c4)c3)c2nc1C`: the GI50 was 2.58 µM and the TGI stood at 14.8 µM.

For `O=C1NC(=S)NNC12c1ccccc1-c1ccccc12`, the TGI is greater than 10 µM.

In the case of `Cc1csc(Nc2nc(-c3cccc(Br)c3)nc(C(Cl)(Cl)Cl)n2)n1`, the GI50 is 7.75 µM and the TGI was greater than 100 µM.

Take `COc1c(OC)c(OC)c(C(=O)/C=C/c2ccccc2)c(OC)c1OC`: the TGI worked out at 21.6 µM.

Regarding `CS(=O)(=O)CCCn1c(=O)c(Oc2ccc(F)cc2F)cc2cnc(NC3CCOCC3)nc21`, the GI50 was greater than 25 µM and the TGI is greater than 25 µM.

`O=C(CC(O)(C(F)(F)F)C(F)(F)F)c1cc(CC(=O)C(O)(C(F)(F)F)C(F)(F)F)cc(CC(=O)C(O)(C(F)(F)F)C(F)(F)F)c1` registered a TGI of 4.53 µM.

As for `Cc1cn2c(/C=C3\C(=O)Nc4ccc(O)cc43)c(-c3ccc(Cl)cc3)nc2s1`, the GI50 was 16.6 µM and the TGI amounted to 32.7 µM.

`O=C(c1c(F)ccc(NS(=O)(=O)N2CC[C@@H](F)C2)c1F)c1c[nH]c2ncc(-c3cnc(C4CC4)nc3)cc12`: the GI50 is 5.46 µM and 6.36 µM; the TGI is > 10 µM and 56.7 µM.

With `O=C(c1ccc(Cl)cc1)c1cnc(Nc2ccccc2Cl)s1`, the TGI was 39.1 µM.

With `Nc1nc(N)c(N=Nc2ccc([As](=O)(O)O)cc2)c(=O)[nH]1`, the TGI is greater than 100 µM.

Regarding `C=CC(=O)N1CCC(C2CCNc3c(C(N)=O)c(-c4ccc(Oc5ccccc5)cc4)nn32)CC1` (stereo not given), the GI50 is 12.2 µM and the TGI was greater than 100 µM.

For `CCCCCCNC(=O)c1nc(-c2ccccc2)oc1Cc1ccc(OP(=O)(O)O)cc1`, the GI50 is 17.9 µM and the TGI stood at 35.4 µM.

The subject of another assay is SK-MEL-28 melanoma. Kind of assay: growth of human tumour cells (NCI), 48 h.
Consider `COc1ccc(-c2oc(=O)ccc2-c2cc(OC)c(OC)c(OC)c2)cc1F`, for which the GI50 is 24.7 µM and the TGI is greater than 100 µM.

For the compound `O=C(c1ccc(F)c(F)c1Nc1ccc(I)cc1F)N1CC(O)([C@@H]2CCCCN2)C1`, the GI50 was less than 0.01 µM and the TGI amounted to 0.594 µM.

For `Oc1cc(O)c2c(c1)OC(c1ccc(O)c(O)c1)C(OC1(c3cc(O)c(O)c(O)c3)Oc3cc(O)cc(O)c3C(O)C1O)C2` (stereo not given), the TGI is greater than 68.5 µM.

On to `CCOc1ccc2nc(S/C(=C/C=C(C#N)C#N)c3ccc(C)cc3)sc2c1`, for which the GI50 is 31.1 µM and the TGI was greater than 100 µM.

Take `COc1cc(CNCCCN2C(=O)c3ccc4c5c(ccc(c35)C2=O)C(=O)N(CCCNCc2cc(OC)c(OC)c(OC)c2)C4=O)cc(OC)c1OC`: the GI50 was 0.841 µM and the TGI is 1.57 µM.

Regarding `Cc1nc2cnc(N)c(C#Cc3cncc(C(=O)Nc4ccc(CN5CCN(C)CC5)c(C(F)(F)F)c4)c3)c2nc1C`, the GI50 is 0.166 µM and the TGI was 1.32 µM.

As for `O=C1NC(=S)NNC12c1ccccc1-c1ccccc12`, the TGI was greater than 10 µM.

For the compound `Cc1csc(Nc2nc(-c3cccc(Br)c3)nc(C(Cl)(Cl)Cl)n2)n1`, the GI50 is 3.48 µM and the TGI is greater than 100 µM.
